Experimental data from PMC8431481, “Peptide Derivatives of the Zonulin Inhibitor Larazotide (AT1001) as Potential Anti SARS-CoV-2: Molecular Modelling, Synthesis and Bioactivity Evaluation” (International Journal of Molecular Sciences, 2021).
Read-outs that look alike come from different tables or passages of the source. Where a SMILES comes first, the peptide text is derived from it. The star is where a group is joined. Piv = CC(C)(C)C(=O)*

Columns and labels:
[1] = test system: human cytomegalovirus (HCMV) strain AD-169; test: microbe, parasite or virus in culture; conditions: Human betaherpesvirus 5, AD169, HEL, read-out: Antiviral Activity (EC50) AD-169 Strain
[2] = test system: human cytomegalovirus (HCMV) strain Davis; test: microbe, parasite or virus in culture; conditions: Human betaherpesvirus 5, HEL, read-out: Antiviral Activity (EC50) Davis Strain
[3] = test system: human embryonic lung (HEL) fibroblasts; test: Cytotoxicity, cell morphology (MCC) in HEL cells
[4] = Cytostatic activity, cell growth (CC50) in HEL cells; conditions: human, HEL 299 human embryonic lung fibroblasts
[5] = biological target: T1, recombinant SARS-CoV-2 M^pro (Severe acute respiratory syndrome coronavirus 2, UniProt P0DTD1); assay type: biochemical; conditions: relative to concentration range 0.1–1 µM
T1 construct: The virus enzyme, called 3CLpro or main protease (M^pro), is essential for viral replication; purchased Proteros

[6] = test system: SARS-CoV-2 clinical strain UC-1074; conditions: for EC50: clinical strain UC-1074, 24 h; for activity against SARS-CoV-2 (in words): Vero cells, strains UC-1074 and UC-1075
[7] = test system: SARS-CoV-2 clinical strain UC-1075; conditions: clinical strain UC-1075, 24 h
[8] = test system: human cytomegalovirus (HCMV) strain AD-169; conditions: read-out: Antiviral Activity (EC50) AD-169 Strain; HEL cells, virus input 100 CCID50
[9] = test system: human cytomegalovirus (HCMV) strain Davis; conditions: read-out: Antiviral Activity (EC50) Davis Strain; HEL cells, virus input 100 CCID50
[10] = test system: varicella-zoster virus (VZV) wild-type strain Oka; conditions: read-out: Antiviral Activity (EC50) TK+ VZV Strain OKA; HEL cells, virus input 20 PFU
[11] = test system: thymidine kinase deficient (TK−) VZV strain 07−1; conditions: read-out: Antiviral Activity (EC50) TK-VZV Strain 07–1; HEL cells, virus input 20 PFU
in vitro = conditions: African green monkey
[12] = test system: SARS-CoV-2 clinical strain UC-1074; test: microbe, parasite or virus in culture; conditions: Severe acute respiratory syndrome coronavirus 2, UC1074, Vero, 120 h, read-out: Antiviral Activity (EC50) UC-1074
[13] = test system: SARS-CoV-2 clinical strain UC-1075; test: microbe, parasite or virus in culture; conditions: Severe acute respiratory syndrome coronavirus 2, UC1075, Vero, 120 h, read-out: Antiviral Activity (EC50) UC-1075
[14] = test system: human embryonic lung (HEL) fibroblasts; test: Cytostatic activity, cell growth (CC50) in HEL cells; conditions: read-out: Cytotoxicity Cell Growth (CC50); HEL cells, Table 3 (VZV tests)
SARS-CoV-2 = conditions: read-out: EC50 (reported value); cited from earlier work
[15] = test system: varicella-zoster virus (VZV) wild-type strain Oka; test: microbe, parasite or virus in culture; conditions: Human alphaherpesvirus 3, HEL, read-out: Antiviral Activity (EC50) TK+ VZV Strain OKA

**Q.** What does the source list for Nc1nc(O)c2ncn(COC(CO)CO)c2n1 [Ganciclovir]?
**A.** EC50 [1]: 2.56 ± 0.23 µM; EC50 [2]: 1.18 µM; Cytotoxicity Cell Morphology (MCC) ([3]; Table 2 (HCMV tests)): ≥394 µM; CC50 at 3 days [4]: 350 µM

**Q.** For CNC(=O)CNC(=O)[C@@H]1CCCN1C(=O)[C@H](CCC(N)=O)NC(=O)[C@@H](NC(=O)[C@H](CC(C)C)NC(=O)[C@@H](NC(=O)CNC(=O)CNC(=O)C(C)(C)C)C(C)C)C(C)C [Peptide 4] (Piv-GGVLVQPG-NHMe), which Inhibition [5] is on record?
**A.** 26.2 ± 0.3%

**Q.** What about the EC50 [6] of the same compound?
**A.** ≥ 20 µM

**Q.** What about the EC50 [7] of the same compound?
**A.** > 20 µM

**Q.** What about the “Cytotoxicity Cell Morphology (MCC)” value (Vero cells; Vero cells) of the same compound?
**A.** 100 µM

**Q.** What about the EC50 [8] of the same compound?
**A.** > 20 µM

**Q.** And the EC50 [9]?
**A.** 100 µM

**Q.** And the EC50 [10]?
**A.** 78.2 µM

**Q.** What about the EC50 [11] of the same compound?
**A.** > 100 µM

**Q.** What about the CC50 (in vitro) of the same compound?
**A.** 74.9 ± 4.9 µM

**Q.** And the “Cytotoxicity Cell Morphology (MCC)” value ([3]; Table 2 (HCMV tests))?
**A.** 100 µM

**Q.** What about the “Cytotoxicity Cell Morphology (MCC)” value ([3]; Table 3 (VZV tests)) of the same compound?
**A.** ≥100 µM

**Q.** With CNC(=O)CNC(=O)[C@@H]1CCCN1C(=O)[C@H](CCC(N)=O)NC(=O)[C@@H](NC(=O)[C@H](CC(C)C)NC(=O)[C@@H](NC(=O)CNC(=O)CNC(C)=O)C(C)C)C(C)C [Peptide 3] (Ac-GGVLVQPG-NHMe) as the compound, how does the Inhibition [5] read?
**A.** 27.4 ± 1.1%

**Q.** What about the “activity against SARS-CoV-2 (in words)” value [6] of the same compound?
**A.** negligible activity

**Q.** What about the EC50 [6] of the same compound?
**A.** > 20 µM

**Q.** What about the EC50 [7] of the same compound?
**A.** > 20 µM

**Q.** And the “Cytotoxicity Cell Morphology (MCC)” value (Vero cells; Vero cells)?
**A.** 100 µM

**Q.** And the EC50 [8]?
**A.** > 20 µM

**Q.** What about the EC50 [9] of the same compound?
**A.** > 100 µM

**Q.** And the EC50 [10]?
**A.** 58.1 µM

**Q.** What about the EC50 [11] of the same compound?
**A.** 81.1 µM

**Q.** And the CC50 (in vitro)?
**A.** 81.8 ± 2.1 µM

**Q.** And the “Cytotoxicity Cell Morphology (MCC)” value ([3]; Table 2 (HCMV tests))?
**A.** ≥20 µM

**Q.** What about the “Cytotoxicity Cell Morphology (MCC)” value ([3]; Table 3 (VZV tests)) of the same compound?
**A.** >100 µM

**Q.** For CCC(CC)COC(=O)[C@H](C)N[P@](=O)(OC[C@H]1O[C@@](C#N)(c2ccc3c(N)ncnn23)[C@H](O)[C@@H]1O)Oc1ccccc1 [Remdesivir, reference compound], which “Cytotoxicity Cell Morphology (MCC)” value (Vero cells; Vero cells) is on record?
**A.** 100 µM

**Q.** What about the CC50 (in vitro) of the same compound?
**A.** 70.6 ± 4.9 µM

**Q.** And the EC50 [12]?
**A.** 0.89 ± 0.44 µM

**Q.** What about the EC50 [13] of the same compound?
**A.** 1.06 ± 0.44 µM

**Q.** With CC(C)C[C@H](NC(=O)[C@@H](NC(=O)CNC(=O)CN)C(C)C)C(=O)N[C@H](C(=O)N[C@@H](CCC(N)=O)C(=O)N1CCC[C@H]1C(=O)NCC(=O)O)C(C)C [AT1001 (1), Larazotide acetate, reference compound] (H-GGVLVQPG-OH) as the compound, how does the Inhibition [5] read?
**A.** 27.7 ± 0.2%

**Q.** What about the EC50 [6] of the same compound?
**A.** > 20 µM

**Q.** And the EC50 [7]?
**A.** > 20 µM

**Q.** And the “Cytotoxicity Cell Morphology (MCC)” value (Vero cells)?
**A.** 100 µM

**Q.** And the EC50 [8]?
**A.** > 20 µM

**Q.** And the EC50 [9]?
**A.** > 20 µM

**Q.** What about the EC50 [10] of the same compound?
**A.** 44.1 µM

**Q.** And the EC50 [11]?
**A.** 59.1 µM

**Q.** And the CC50 (in vitro)?
**A.** 82.5 ± 6.2 µM

**Q.** What about the “Cytotoxicity Cell Morphology (MCC)” value ([3]; Table 2 (HCMV tests)) of the same compound?
**A.** ≥100 µM

**Q.** And the “Cytotoxicity Cell Morphology (MCC)” value ([3]; Table 3 (VZV tests))?
**A.** ≥100 µM

**Q.** With CNC(=O)[C@H](CCC(N)=O)NC(=O)[C@@H](NC(=O)[C@H](CC(C)C)NC(=O)[C@@H](NC(=O)CNC(C)=O)C(C)C)C(C)C [Peptide 5, Ac-GVLVQ-NHCH3] (Ac-GVLVQ-NHMe) as the compound, how does the Inhibition [5] read?
**A.** 27.0 ± 1.1%

**Q.** And the “activity against SARS-CoV-2 (in words)” value [6]?
**A.** negligible activity

**Q.** What about the EC50 [6] of the same compound?
**A.** > 20 µM

**Q.** And the EC50 [7]?
**A.** > 20 µM

**Q.** And the “Cytotoxicity Cell Morphology (MCC)” value (Vero cells; Vero cells)?
**A.** 100 µM

**Q.** What about the EC50 [8] of the same compound?
**A.** > 20 µM

**Q.** And the EC50 [9]?
**A.** > 100 µM

**Q.** And the EC50 [10]?
**A.** 59.8 µM

**Q.** What about the EC50 [11] of the same compound?
**A.** > 100 µM

**Q.** And the CC50 (in vitro)?
**A.** 75 ± 2.2 µM

**Q.** What about the “Cytotoxicity Cell Morphology (MCC)” value ([3]; Table 2 (HCMV tests)) of the same compound?
**A.** ≥100 µM

**Q.** And the “Cytotoxicity Cell Morphology (MCC)” value ([3]; Table 3 (VZV tests))?
**A.** >100 µM

**Q.** For O=c1[nH]c(=O)n([C@H]2C[C@H](O)[C@@H](CO)O2)cc1/C=C/Br [Birivudine, reference compound], which EC50 [10] is on record?
**A.** 0.23 ± 0.04 µM

**Q.** And the EC50 [11]?
**A.** 2.13 µM

**Q.** And the “Cytotoxicity Cell Morphology (MCC)” value ([3]; Table 3 (VZV tests))?
**A.** >300.3 µM

**Q.** What about the CC50 [14] of the same compound?
**A.** > 300 µM

**Q.** Which results are given for CC(=O)NCC(=O)NCC(=O)N[C@H](C(=O)N[C@@H](CC(C)C)C(=O)N[C@H](C(=O)N[C@@H](CCC(N)=O)C(=O)N1CCC[C@H]1C(=O)NCC(N)=O)C(C)C)C(C)C [Peptide 2] (Ac-GGVLVQPG-NH2)?
**A.** Inhibition [5]: 27.1 ± 0.5%; EC50 [7]: > 20 µM; Cytotoxicity Cell Morphology (MCC) (Vero cells; Vero cells): 100 µM; EC50 [8]: > 20 µM; EC50 [9]: > 20 µM; EC50 [10]: 50.1 µM; EC50 [11]: 48.4 µM; CC50 (in vitro): 83 ± 17 µM; Cytotoxicity Cell Morphology (MCC) ([3]; Table 2 (HCMV tests)): ≥20 µM; Cytotoxicity Cell Morphology (MCC) ([3]; Table 3 (VZV tests)): >100 µM

**Q.** For Cc1cc(C(=O)NC(C)C(=O)NC(C(=O)NC(CC(C)C)C(=O)NC(C=CC(=O)OCc2ccccc2)CC2CCNC2=O)C(C)C)no1 (stereo not shown) [Peptide N3], which EC50 (SARS-CoV-2) is on record?
**A.** 16.8 ± 1.7 µM

**Q.** With Nc1nc2c(ncn2COCCO)c(=O)[nH]1 [Aciclovir] as the compound, how does the EC50 [15] read?
**A.** 8.39 µM

**Q.** For Nc1ccn(C[C@@H](CO)OCP(=O)(O)O)c(=O)n1 [Cidofovir], which EC50 [1] is on record?
**A.** 1.27 ± 0.18 µM

**Q.** What about the EC50 [2] of the same compound?
**A.** 0.67 ± 0.49 µM

**Q.** And the “Cytotoxicity Cell Morphology (MCC)” value ([3]; Table 2 (HCMV tests))?
**A.** ≥317 µM

**Q.** What about the CC50 at 3 days [4] of the same compound?
**A.** 159 ± 76.5 µM

**Q.** Which Inhibition [5] does the source give for CNC(=O)[C@@H](NC(=O)[C@H](CC(C)C)NC(=O)[C@@H](NC(=O)CNC(C)=O)C(C)C)C(C)C [Peptide 6, Ac-GVLV-NHCH3] (Ac-GVLV-NHMe) here?
**A.** 25.0 ± 0.5%

**Q.** What about the EC50 [6] of the same compound?
**A.** ≥ 20 µM

**Q.** And the EC50 [7]?
**A.** > 20 µM

**Q.** And the “Cytotoxicity Cell Morphology (MCC)” value (Vero cells; Vero cells)?
**A.** 100 µM

**Q.** And the EC50 [8]?
**A.** > 4 µM

**Q.** What about the EC50 [9] of the same compound?
**A.** > 20 µM

**Q.** What about the EC50 [10] of the same compound?
**A.** > 20 µM

**Q.** And the EC50 [11]?
**A.** > 20 µM

**Q.** What about the CC50 (in vitro) of the same compound?
**A.** 77.4 ± 0.7 µM

**Q.** What about the “Cytotoxicity Cell Morphology (MCC)” value ([3]; Table 2 (HCMV tests)) of the same compound?
**A.** ≥20 µM

**Q.** What about the “Cytotoxicity Cell Morphology (MCC)” value ([3]; Table 3 (VZV tests)) of the same compound?
**A.** 100 µM
